This note sets out measurements from PubChem BioAssay AID602215 (Sanford-Burnham Center for Chemical Genomics, 2012).

SMILES strings stand for the structures. Calls of active or inactive are those of the source.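 The calls were made as follows: active = IC50 of 20 µM or lower; inactive = the rest.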 Some results are limits rather than exact numbers.

This assay has as its system HL-1 cardiomyocytes, H2O2 injury, ATP luminescence, 2 h. Briefly: protection of HL-1 cardiomyocytes from peroxide injury, dose response, cell-based, ATP luminescence (AID 602215).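 Also: potency is for protection so actives raise ATP signal against peroxide damage.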

One may read the IC50 as the concentration that inhibits the measured activity by half. As to `CC(=O)Nc1cccc(-c2cc(NC=O)c3ncc(-c4ccc(C(C)=O)cc4)n3c2)c1`, the IC50 was 6.11 µM.

Take `CC(=O)Nc1cc(-c2ccc(C(=O)NC3CC3)cc2)cn2c(-c3cccc(C(C)=O)c3)cnc12`: the IC50 was > 79 µM (inactive).

On to `Nc1c(C(=O)N/N=C/c2cccnc2)oc2nc(-c3ccco3)cc(-c3ccco3)c12`, for which the IC50 was > 79 µM (inactive).

Consider `CCOC(=O)c1c2c3c(cccc3n(C)c1=O)C(=O)c1ccccc1-2`, for which the IC50 was > 79 µM (inactive).

Turning to `NC(=O)c1nsc(C(=O)N(c2ccccc2F)C(C(=O)NCc2ccc(F)cc2)c2ccc(O)cc2)c1N` (centres undefined), the IC50 was > 79 µM (inactive).

With `CCOC(=O)c1c(C)[nH]c(C)c1C(=O)COc1ncnc2cc([N+](=O)[O-])ccc12`, the IC50 is > 79 µM (inactive).

Consider `COCCCN(Cc1ccco1)C(=O)Cn1ncc2c([nH]c3ccccc32)c1=O`, for which the IC50 was > 79 µM (inactive).

`COc1ccc(-c2ccc3c(c2)S(=O)(=O)c2cccc(C(=O)NC[C@@H]4CCCO4)c2C3=O)cc1OC`: the IC50 was > 79 µM (inactive).

For `CCc1nc2ccc(C(=O)Nc3cc(-c4ccccc4)ccc3OC)cn2c1N(C)Cc1nccs1`, the IC50 was > 79 µM (inactive).

For `COc1cc(-c2cc(NC(C)=O)c3ncc(-c4ccc(C(C)=O)cc4)n3c2)cc(OC)c1OC`, the IC50 is > 79 µM (inactive).

`CCN(CC)C(=O)c1[nH]cnc1C(=O)NCC(=O)OCc1ccccc1`: the IC50 was > 79 µM (inactive).

In the case of `O=C(Nc1ccccc1)c1nc[nH]c1C(=O)NCCCCNC(=O)c1[nH]cnc1C(=O)Nc1ccccc1`, the IC50 is 39.6 µM (inactive).

On to `O=C(Nc1ccccc1)c1nc[nH]c1C(=O)NCCCCCCNC(=O)c1[nH]cnc1C(=O)Nc1ccccc1`, for which the IC50 was 3.45 µM.

On to `CC12C=CC(=O)CC1CCC1C2CCC2(C)C(O)C(O)CC12` (centres undefined), for which the IC50 is > 79 µM (inactive).

Regarding `CCOc1cc(-c2cc(-c3ccc(N)cc3)nc(N)c2C#N)ccc1O`, the IC50 was > 79 µM (inactive).

On to `COC(=O)c1[nH]c2ccccc2c1NC(=O)CNC1CCCCC1`, for which the IC50 is > 79 µM (inactive).

As to `Cc1[nH]c2ccccc2c1/C=N/NC(=O)c1cc(-c2ccccc2)n[nH]1`, the IC50 was > 79 µM (inactive).

For `O=C(CCCN1C(=O)c2cccc3cccc(c23)C1=O)N1CCN(c2ccccc2O)CC1`, the IC50 is 7.51 µM.

`COc1ccc(-c2ccc3c(c2)S(=O)(=O)c2cccc(C(=O)N4CCN(c5c(Cl)cncc5Cl)CC4)c2C3=O)cc1OC`: the IC50 is > 79 µM (inactive).

`COc1cc(C(=O)Nc2nc(-c3cccs3)cs2)cc(OC)c1OC`: the IC50 was > 79 µM (inactive).

`COc1ccc(/C=N/NC(=O)c2ccc(COc3cccc4cccnc34)cc2)cc1OC`: the IC50 is 6.02 µM.

Consider `Fc1ccc(-n2cc(-c3ccccc3)c3c(N4CCOCC4)ncnc32)cc1`, for which the IC50 is > 79 µM (inactive).

`COc1cc(-c2cnc3c(NC=O)cc(-c4cccnc4)cn23)cc(OC)c1OC`: the IC50 is 16.9 µM.

Regarding `COc1cc(-c2cc(C(=O)Nc3cccc(C(C)=O)c3)c3ccccc3n2)cc(OC)c1OC`, the IC50 was 3.99 µM.

`Cc1ccc(NC(=O)c2nc[nH]c2C(=O)NCCCNC(=O)c2[nH]cnc2C(=O)Nc2ccc(C)cc2)cc1`: the IC50 was > 79 µM (inactive).

With `NC(=O)c1cc2ccccc2o/c1=N\NC(=O)c1ccc(F)cc1`, the IC50 was 3.33 µM.

Take `COc1ccc(-c2cc(-c3nnc(COC(=O)C4CC4C)o3)c3ccccc3n2)cc1OC` (centres undefined): the IC50 is 3.49 µM.

On to `O=CNc1cc(-c2ccc(C(=O)NC3CC3)cc2)cn2c(-c3ccccc3)cnc12`, for which the IC50 is > 79 µM (inactive).

Take `CCOc1ccc(-n2cc(-c3ccccc3)c3c(N4CCOCC4)ncnc32)cc1`: the IC50 is 24 µM (inactive).

Take `COc1cc2[nH]c(=O)n3nc(-c4ccccc4)nc3c2cc1OC`: the IC50 is > 79 µM (inactive).

As for `COc1ccc(C(C(=O)NC2CCCC2)N(C(=O)c2snc(C(N)=O)c2N)c2cccc(O)c2)cc1` (centres undefined), the IC50 was 23.9 µM (inactive).

As to `Cc1ccc(-n2cc(-c3ccccc3)c3c(N4CCOCC4)ncnc32)cc1`, the IC50 was > 79 µM (inactive).

As for `COc1cccc(C(=O)Nc2c(C(N)=O)oc3ccccc23)c1`, the IC50 was 27.6 µM (inactive).

As for `C=CCOC(=O)C1=C[C@H](c2cn(C(C)=O)c3ccccc23)C[C@H](OCc2ccc(CO)cc2)O1`, the IC50 is > 79 µM (inactive).

Turning to `COc1ccc(-n2cc(-c3ccccc3)c3c(N4CCOCC4)ncnc32)cc1`, the IC50 is > 79 µM (inactive).

Turning to `c1ccc(-c2nc(-n3ccnc3)nc(-n3ccnc3)n2)cc1`, the IC50 is > 79 µM (inactive).

With `O=C(c1ccc(-c2nc3ccccc3s2)o1)N1CCN(c2ccccc2O)CC1`, the IC50 is > 79 µM (inactive).

Turning to `Cc1cccc(NC(=O)c2oc3ccc(S(=O)(=O)N4CCOCC4)cc3c2C)c1C`, the IC50 was 4.13 µM.

Take `CC(=O)c1ccc(-c2cnc3c(NC=O)cc(-c4cccc(C(=O)N(C)C)c4)cn23)cc1`: the IC50 is 12 µM.

On to `Cc1ccc(-c2csc(N3CCC[C@@H]3C(=O)NCCn3c(-c4ccncc4)nc4ccccc43)n2)cc1`, for which the IC50 is > 79 µM (inactive).

As for `Cc1[nH]c2ccccc2c1/C=N/NC(=O)c1cc(-c2cccs2)[nH]n1`, the IC50 is > 79 µM (inactive).

In the case of `COc1cc(-c2cc(C(=O)NCc3ccco3)c3ccccc3n2)cc(OC)c1OC`, the IC50 is 23.5 µM (inactive).

In the case of `Cc1nc(N2CCN(c3ccccn3)CC2)c2c(C)c(C(=O)Nc3ccc(F)cc3)sc2n1`, the IC50 is > 79 µM (inactive).

On to `COc1cc(C(=O)N/N=C/c2ccc(OC(=O)c3cccc(C)c3)c(OC)c2)ccc1O`, for which the IC50 is 31.2 µM (inactive).

For the compound `COc1ccc2c(c1OC)C(=O)N1c3ccccc3C(=O)N(c3ccccc3)C21` (centres undefined), the IC50 was > 79 µM (inactive).

Take `NC(=O)c1nsc(C(=O)N(c2ccccc2)C(C(=O)NCc2ccc(F)cc2)c2ccc(O)cc2)c1N` (centres undefined): the IC50 was > 79 µM (inactive).

For `COc1ccc(-c2cc3nc(-c4ccccc4)cc(N4CCN(C(C)=O)CC4)n3n2)cc1`, the IC50 was 1.59 µM.

Regarding `CNC(=O)c1ccc(-c2sc3nc(N4CCOCC4)c4c(c3c2N)CC(C)(C)OC4)o1`, the IC50 was 1.84 µM.

In the case of `COc1ccccc1CN(C(=O)CNC(=O)c1ccco1)C(C(=O)NCC1CCCO1)c1ccccc1` (centres undefined), the IC50 is > 79 µM (inactive).

In the case of `COc1ccc2[nH]c(=O)c(CN(Cc3cccnc3)S(=O)(=O)c3ccccc3F)cc2c1`, the IC50 is > 79 µM (inactive).

Take `Cc1cc(N)n(-c2nc(-c3cccnc3)nc3ccccc23)n1`: the IC50 was > 79 µM (inactive).

Regarding `COc1cccc(-c2cnc3c(NC=O)cc(-c4cc(OC)c(OC)c(OC)c4)cn23)c1`, the IC50 was > 79 µM (inactive).

Regarding `COc1ccccc1N1CCN(C(=O)c2ccc3nc(-c4ccco4)c(-c4ccco4)nc3c2)CC1`, the IC50 is > 79 µM (inactive).

In the case of `CCOC(=O)C1CCN(c2cc3c(cc2NC(=O)c2ccc(OC)c(OC)c2)n(C)c(=O)n3C)CC1`, the IC50 was > 79 µM (inactive).

As for `CCOC(=O)C(Cc1ccc(NC(=O)/C(=C/c2ccc(OC(C)=O)cc2)NC(C)=O)cc1)N1C(=O)c2ccccc2C1=O` (centres undefined), the IC50 was 32.5 µM (inactive).

For the compound `O=C(c1cc(=O)[nH]c2ccccc12)N1CCN(S(=O)(=O)c2ccc(Cl)cc2)CC1`, the IC50 was > 79 µM (inactive).

On to `O=C(Nc1ccccc1)c1nc[nH]c1C(=O)NCCNC(=O)c1[nH]cnc1C(=O)Nc1ccccc1`, for which the IC50 is > 79 µM (inactive).

Consider `CC(=O)Nc1ccc(S(=O)(=O)N(Cc2cccnc2)Cc2cc3ccccc3[nH]c2=O)cc1`, for which the IC50 was 11.7 µM.

Regarding `COc1cc(-c2cc(C(=O)OCC(=O)NC3CC3)c3ccccc3n2)cc(OC)c1OC`, the IC50 was 12.7 µM.

Regarding `COCCN1Cc2cccc(C(=O)Nc3cccc(-c4nc5ccccc5[nH]4)c3)c2C1=O`, the IC50 is > 79 µM (inactive).

As to `O=C1OCCN1C(=O)[C@H]1[C@H](c2ccc([N+](=O)[O-])cc2)C(c2ccc(F)cc2)=NN1c1ccc(Br)cc1`, the IC50 is > 79 µM (inactive).

For the compound `Cc1ccc(C=NNc2nc3c([nH]2)c(=O)n(C)c(=O)n3C)cc1`, the IC50 was > 79 µM (inactive).

Consider `COc1ccc(C(=O)O/N=C(/c2ccccc2)c2ccncc2)cc1OC`, for which the IC50 was > 79 µM (inactive).

As for `CC(=O)Nc1ccc(Nc2nc(-c3sc(NC(C)=O)nc3C)cs2)cc1`, the IC50 is 20.1 µM (inactive).

Consider `O=C(Nc1cccc(NC(=O)c2ccc([N+](=O)[O-])o2)c1)c1ccco1`, for which the IC50 is > 79 µM (inactive).

Take `O=C(CN1CCN(c2ccccn2)CC1)Nc1ccc([N+](=O)[O-])cc1C(=O)Nc1ccccc1F`: the IC50 was > 79 µM (inactive).

For the compound `NC(=O)c1nsc(C(=O)N(Cc2ccco2)C(C(=O)NCc2ccccc2)c2ccc(O)cc2)c1N` (centres undefined), the IC50 was 45.3 µM (inactive).

`O=C(CNC(=O)c1nc[nH]c1C(=O)NCC(=O)OCc1ccccc1)OCc1ccccc1`: the IC50 was > 79 µM (inactive).

Regarding `CC(C)=NNc1cnnc2ccc([N+](=O)[O-])cc12`, the IC50 is > 79 µM (inactive).

As to `COc1ccc(Nc2nc(C(=O)N3CCc4cc(OC)c(OC)cc4C3)cs2)cc1`, the 50% inhibitory concentration (IC50) is 8.5 µM.

`COc1ccc(-c2cc(NC=O)c3ncc(-c4ccc(C(C)=O)cc4)n3c2)cn1`: the IC50 was > 79 µM (inactive).

With `COc1ccc(-c2nn(-c3ccccc3)cc2C(=O)Nc2nccs2)cc1`, the half-inhibitory concentration (IC50) is 13.7 µM.

Turning to `CC(=O)Nc1ccc(C(=O)N/N=C/c2ccccc2OC(=O)c2ccc(Cl)cc2)cc1`, the IC50 was > 79 µM (inactive).

In the case of `COc1cccc(/C=N/NC(=O)c2oc3nc(-c4ccccc4)cc(-c4ccco4)c3c2N)c1`, the IC50 is > 79 µM (inactive).

As to `CC(C)(C)OC(=O)CNC(=O)c1[nH]cnc1C(=O)NCC(=O)OCc1ccccc1`, the IC50 is 28.2 µM (inactive).

As to `COc1nc(N/N=C/c2cc3c(cc2Br)OCO3)nc(N2CCOCC2)n1`, the IC50 is > 79 µM (inactive).

As for `Cc1ccc(C(C(=O)NCc2ccccc2)N(Cc2ccco2)C(=O)c2snc(C(N)=O)c2N)o1` (centres undefined), the IC50 is > 79 µM (inactive).

In the case of `COc1cc(-c2cc(NC(C)=O)c3ncc(-c4ccc(F)cc4)n3c2)cc(OC)c1OC`, the IC50 is > 79 µM (inactive).

As for `CCOC(=O)c1ccc(NC(=O)c2nc[nH]c2C(=O)NCCCCCNC(=O)OC(C)(C)C)cc1`, the IC50 is > 79 µM (inactive).
